Read-outs that look alike come from different tables or passages of the source.
Assay: Solubility of polymerizable fluorine-containing sulfonic acid onium salts (polymerizable monomers) in PGMEA
Assay type: physicochemical
From the text: The structures and abbreviations of the polymerizable monomers used in this reference example are indicated below. Among others, the monomers PAG-1, PAG-2 and PAG-3 are the polymerizable fluorine-containing sulfonic acid onium salts according to the present invention. [table]

[1] = amount of polymerizable monomer in 100 g of PGMEA

SMILES | Solubility (g/100 g) | Solubility (g/100 g) [1] [g/100 g]
C=C(C)C(=O)OC(OCC(F)(F)S(=O)(=O)O)(C(=O)OCC)C(F)(F)F (centres unmarked) [PAG-1, Triphenylsulfonium 2-(1-Ethoxycarbonyl-1-methacryloyloxy-2,2,2-trifluoroethoxy)-1,1-difluoroethanesulfonate] | 45 | –
C=C(C)C(=O)OC(OCCC(F)(F)C(F)(F)S(=O)(=O)O)(C(=O)OCC)C(F)(F)F (centres unmarked) [PAG-2, Triphenylsulfonium 4-(1-Ethoxycarbonyl-1-methacryloyloxy-2,2,2-trifluoroethoxy)-1,1,2,2-tetrafluorobutanesulfonate] | 55 | –
C=C(C)C(=O)OCC(F)(F)S(=O)(=O)O [PAG-C1, reference compound] | – | 10
C=C(C)C(=O)OCC(=O)OCC(F)(F)S(=O)(=O)O [PAG-C2, reference compound] | – | 11
C=C(C)C(=O)OC(OCCCCC(F)(F)C(F)(F)S(=O)(=O)O)(C(=O)OCC)C(F)(F)F (centres unmarked) [PAG-3, Triphenylsulfonium 6-(1-Ethoxycarbonyl-1-methacryloyloxy-2,2,2-trifluoroethoxy)-1,1,2,2-tetrafluorohexanesulfonate] | 90 | –

Reference: patent US9182664B2, “Polymerizable fluorine-containing sulfonate, fluorine-containing sulfonate resin, resist composition and pattern-forming method using same” (Central Glass Company, Limited, priority 2010, dated 2015)
